Assay results taken from the supplement of paper PMC10307832.

Tests used:
Experiment in all cases: relative viability (nuclei count vs DMSO), 5 days (fraction); higher = more cells survive
OSI-027 + Pemetrexed = compound: COc1cccc2cc(-c3nc([C@H]4CC[C@H](C(=O)O)CC4)n4ncnc(N)c34)[nH]c12 [OSI-027] + Nc1nc2[nH]cc(CCc3ccc(C(=O)N[C@@H](CCC(=O)O)C(=O)O)cc3)c2c(=O)[nH]1 [Pemetrexed] (partner 0.2 µM)
Procedure, shortened: (§1)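 Lung cancer cell lines in 1536-well plates got either a single drug or a fixed anchor-drug dose together with five library-drug doses (not always all listed) in √10 steps, by pin tool, on the day after seeding. Nuclei were counted after 5 days, and relative viability is the treated-to-vehicle ratio of nuclei counts. Values are medians of duplicate plates.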

Alpelisib + Foretinib = compound: Cc1nc(NC(=O)N2CCC[C@H]2C(N)=O)sc1-c1ccnc(C(C)(C)C(F)(F)F)c1 [Alpelisib] + COc1cc2c(Oc3ccc(NC(=O)C4(C(=O)Nc5ccc(F)cc5)CC4)cc3F)ccnc2cc1OCCCN1CCOCC1 [Foretinib] (partner 0.25 µM)
Procedure, shortened: as §1

Vemurafenib + Olaparib = compound: CCCS(=O)(=O)Nc1ccc(F)c(C(=O)c2c[nH]c3ncc(-c4ccc(Cl)cc4)cc23)c1F [Vemurafenib] + O=C(c1cc(Cc2n[nH]c(=O)c3ccccc23)ccc1F)N1CCN(C(=O)C2CC2)CC1 [Olaparib] (partner 8 µM)
Procedure, shortened: as §1

Alpelisib + Navitoclax = compound: Cc1nc(NC(=O)N2CCC[C@H]2C(N)=O)sc1-c1ccnc(C(C)(C)C(F)(F)F)c1 [Alpelisib] + CC1(C)CCC(c2ccc(Cl)cc2)=C(CN2CCN(c3ccc(C(=O)NS(=O)(=O)c4ccc(N[C@H](CCN5CCOCC5)CSc5ccccc5)c(S(=O)(=O)C(F)(F)F)c4)cc3)CC2)C1 [Navitoclax] (partner 0.5 µM)
Procedure, shortened: as §1

Row | Cell Line | relative viability (OSI-027 + Pemetrexed; first compound 0.01 µM) | relative viability (OSI-027 + Pemetrexed; first compound 0.03162 µM) | relative viability (OSI-027 + Pemetrexed; first compound 0.1 µM) | relative viability (OSI-027 + Pemetrexed; first compound 0.3162 µM) | relative viability (OSI-027 + Pemetrexed; first compound 1 µM) | relative viability (Alpelisib + Foretinib; first compound 0.04 µM) | relative viability (Alpelisib + Foretinib; first compound 0.1265 µM) | relative viability (Alpelisib + Foretinib; first compound 0.4 µM) | relative viability (Alpelisib + Foretinib; first compound 1.265 µM) | relative viability (Alpelisib + Foretinib; first compound 4 µM) | relative viability (Vemurafenib + Olaparib; first compound 0.03162 µM) | relative viability (Vemurafenib + Olaparib; first compound 0.1 µM) | relative viability (Vemurafenib + Olaparib; first compound 0.3162 µM) | relative viability (Vemurafenib + Olaparib; first compound 1 µM) | relative viability (Alpelisib + Navitoclax; first compound 0.04 µM) | relative viability (Alpelisib + Navitoclax; first compound 0.1265 µM) | relative viability (Alpelisib + Navitoclax; first compound 0.4 µM) | relative viability (Alpelisib + Navitoclax; first compound 1.265 µM) | relative viability (Alpelisib + Navitoclax; first compound 4 µM)
1 | NCI-H1666 | 0.853 | 0.905 | 0.832 | 0.831 | 0.787 | 1 | 1.02 | 1.05 | 0.801 | 0.74 | 0.715 | 0.77 | 0.769 | 0.782 | 0.95 | 0.677 | 0.937 | 0.762 | 0.689
2 | NCI-H1734 | 0.416 | 0.436 | 0.371 | 0.412 | 0.386 | 0.749 |  | 0.786 | 0.486 | 0.356 | 0.55 | 0.62 | 0.611 | 0.615 | 0.835 | 0.758 | 0.794 | 0.714 | 0.47
3 | NCI-H1755 | 0.5 | 0.417 | 0.454 | 0.655 | 0.439 | 0.95 | 0.924 | 0.962 | 0.785 | 0.731 | 0.806 | 0.898 | 0.907 | 0.8 | 1.05 | 0.979 | 1.04 | 0.93 | 0.705
4 | NCI-H1793 | 0.795 | 0.866 | 0.468 | 0.391 | 0.209 | 0.733 | 0.666 | 0.77 | 0.402 | 0.42 | 0.778 | 0.497 | 0.879 | 1.06 | 0.419 | 0.335 | 0.356 | 0.376 | 0.365
